Reference: PMC6072100, “Exploring the links between peptoid antibacterial activity and toxicity” (MedChemComm, 2017)
Read-outs that look alike come from different tables or passages of the source. Square brackets hold non-standard residues; d marks the D form. Ends that are not written are not given here. Peptide text beside a SMILES is read from it. Nspe = C[C@H](NCC(=O)O)c1ccccc1; NhArg = N=C(N)NCCCCNCC(=O)O; Nphe = O=C(O)CNCc1ccccc1; Nlys = NCCCCNCC(=O)O

Tests used:
[1] = Skin cell toxicity assay with HaCaT (alamarBlue); assay type: cell-based, human; details: human, HaCaT cells (keratinocytes), ED50 HaCaT
Protocol: (§1) The activity of our peptoid library was assessed against both bacterial and mammalian cells to gain a broader understanding of the factors that lead to effective and selective antimicrobial peptoids. We screened for broad-spectrum antibacterial activity against Gram-negative (Escherichia coli and Pseudomonas aeruginosa) and Gram-positive (Staphylococcus aureus and S. epidermidis) bacteria. The toxicity of the library was also assessed against two mammalian cell lines; HaCaT spontaneously transformed aneuploid keratinocytes were employed to model toxicity against human skin cells and HepG2, a cell line derived from a human liver carcinoma, were used as a study on polarised human hepatocytes. Detailed methods for these assays can be found in the ESI. ^‡ […]
(§2) Please note – ED50, the median effective dose, was defined as the dose that kills 50% of cells.
(§3) Cytotoxicity analyses were performed in 96-well plates (Costar, Fisher Scientific) using alamarBlue® (Invitrogen) for cell viability detection using a modified protocol as described previously. HepG2 or HaCaT cells were subcultured at 37 °C, 5% CO2 in DMEM high glucose supplemented with heat-inactivated foetal bovine sera (FBS, 10%; Biosera Ltd) and penicillin/streptomycin (P/S, 1%). Cells were counted using a Neubauer Improved Haemocytometer. HepG2 cells were seeded 1 day prior to treatment in 96 well plates at a concentration of 2 × 10^5 cells per mL in 100 μL of medium (2 × 10^4 cells per well). Then cells were pre-incubated with the compounds in triplicate in a dilution series in triplicate from 2–100 μM (5 mM stock solutions in DMSO diluted from 100 μM to 3 μM; untreated cells with DMSO as a negative control) in 50 μl of the media for 1 hour. Afterwards, 40 μL were removed from each well before the addition of 90 μL of the media, followed by incubation for 24 hours at 37 °C, 5% CO2. Then, 10 μL of alamarBlue® (Invitrogen) was added to each well before a 2 hour incubation prior to assessing cell viability using a fluorescent plate reader (Biotek; Ex 560 nm/Em 600 nm). All data were measured in triplicate on a minimum of two occasions to ensure a robust data set was collected. The ED50 values were calculated from the dose response results achieved from the serial dilutions. […]
(§4) Cells were counted using a Neubauer Improved
(§5) Haemocytometer. […]
(§6) µM to 3 µM; untreated cells with DMSO as a negative control) in 50 µl of the media for 1 hour.
(§7) Afterwards, 40 µL were removed from each well before the addition of 90 µL of the media, followed by incubation for 24 hours at 37 °C, 5% CO2. Then, 10 µL of alamarBlue® (Invitrogen) was added to each well before a 2 hour incubation prior to assessing cell viability using a fluorescent plate reader (Biotek; Ex 560 nm / Em 600 nm). All data was measured in triplicate on a minimum of two occasions to ensure a robust data set was collected. The ED50 values were calculated from the dose response results achieved from the serial dilutions.
(§8) Skin Cell Toxicity assay with HaCaT […]
(§9) alamarBlue® (Invitrogen) for cell viability detection. HaCaT cells were subcultured at 37 °C, 5% CO2 in DMEM high glucose supplemented with heat-inactivated foetal bovine sera (FBS, 10%; Biosera Ltd) and penicillin/streptomycin (P/S, 1%). Cells were counted using a Neubauer Improved Haemocytometer. HaCaT cells were seeded in the plates 24 hours prior to treatment in 96 well plates at a concentration of 2x10^5 cells/mL in 100 µL of medium (2x10^4 cells/well).
(§10) Empty wells were filled with 100 µL PBS. After 24 hours, cells were incubated with the compounds in a dilution series in triplicate from 2 – 100 µM (5 mM stock solutions in DMSO diluted from 100 µM to 3 µM; Amphotericin B was used as a positive control and untreated cells with DMSO as a negative control) in 50 µL of the media for 1 hour. Afterwards, 40 µl was removed from each well, 90 µL of medium was added to each well and the cells incubated for 24 hours at 37 °C, 5% CO2. 10 µL of alamarBlue® (Invitrogen) was added to each well before […]

HaCaT cells = experiment: Skin cell toxicity assay with HaCaT (alamarBlue); assay type: cell-based, human; details: human, HaCaT cells (keratinocytes), 24 h
Protocol: as §1, §2, §3, §4, §5, §6, §7, §8, §9, §10

[2] = system: Pseudomonas aeruginosa PA01 (ATCC 15692); assay type: cell-based; details: lowest concentration completely inhibiting growth, 37 °C, 16 h; range 2–100 μM
Protocol: (§11) Escherichia coli K-12 wild-type strain (W3110/ATCC27325, F^–, λ^–, rpoS(Am), rph-1, Inv(rrnD-rrnE)), Pseudomonas aeruginosa PA01 (ATCC 15692) Staphylococcus aureus (3R7089 strain Oxford/ATCC9144) and Staphylococcus epidermidis (laboratory strain from clinical isolate) were selected for bacteriological studies as representative Gram-negative (E. coli and P. aeruginosa) and Gram-positive (S. aureus and S. epidermidis) species. Bacterial cultures were prepared by streaking bacterial strains onto LB agar plates with an inoculation loop and incubated overnight at 37 °C. A single colony was selected and placed in 5 mL of Iso-sensitest broth (Oxoid, ThermoScientific) and incubated with shaking for 16–18 h at 37 °C to provide liquid cultures for testing.
(§12) MIC values were obtained according to the protocol described by J. M. Andrews et al.[58] and were conducted in 96-well plates (Sarstedt). Bacteria were grown from overnight cultures in Iso-sensitest broth to an A650nm of 0.07 equivalent to a 0.5 MacFarland standard (240 μM BaCl2 in 0.18 M H2SO4). This culture was diluted ten-fold with Iso-sensitest broth before use. Peptoids were initially dissolved in DMSO (5 mM) and diluted further in Iso-sensitest broth to achieve a concentration range of 4–200 μM using 2-fold serial dilutions. 50 μl of inoculum and 50 μl of peptoid solution were added to each test well (final concentration range of 2–100 μM). Experiments were performed in triplicate. A positive control for bacterial growth contained only the inoculum and Iso-sensitest broth. Other controls contained the inoculum and serial dilutions of ampicillin (from 250 μg mL^–1 to 2 μg mL^–1), serial dilutions of DMSO and the inoculum to confirm no inhibitory effect on bacterial growth, and Iso-sensitest broth alone as a sterile control. […] Quantitative data was attained from absorbance values using a Biotek Synergy H4 plate reader.
(§13) Antibacterial MIC determination
as §11, with “(W3110 / ATCC27325, F-, λ-,” for “(W3110/ATCC27325, F^–, λ^–,”, “Oxford / ATCC9144)” for “Oxford/ATCC9144)”, “°C.” for “°C. A single colony was selected and placed in 5 mL of Iso-sensitest broth (Oxoid, ThermoScientific) and incubated with shaking for 16–18 h at 37 °C to provide liquid cultures for testing.”
(§14) A single colony was selected and placed in 5 mL of Iso-sensitest broth (Oxoid, ThermoScientific) and incubated with shaking for 16-18 h at 37 °C to provide liquid […]
(§15) MIC values were obtained according to the protocol described by J. M. Andrews et al.1 and were conducted in 96-well plates (Sarstedt). Bacteria were grown from overnight cultures in Iso-sensitest broth to an A650nm of 0.07 equivalent to a 0.5 MacFarland standard (240 μM BaCl2 in 0.18 M H2SO4). This culture was diluted ten-fold with Iso-sensitest broth before use. Peptoids were initially dissolved in DMSO (5 mM) and diluted further in Iso-sensitest broth to achieve a concentration range of 4 – 200 µM using 2-fold serial dilutions. 50 μl of inoculum and 50 μl of peptoid solution were added to each test well (final concentration range of 2 – 100 µM). Experiments were performed in triplicate. A positive control for bacterial growth contained only the inoculum and Iso-sensitest broth. Other controls contained the inoculum and serial dilutions of ampicillin (from 250 µg/mL to 2 µg/mL), serial dilutions of DMSO and the inoculum to confirm no inhibitory effect on bacterial growth, and Iso-sensitest broth alone as a sterile control. […]
(§16) growth after incubation at 37 °C for 16 h with shaking. Quantitative data was attained from absorbance values using a Biotek Synergy H4 plate reader.

[3] = system: Escherichia coli K-12 wild-type strain (W3110/ATCC27325); assay type: cell-based; details: lowest concentration completely inhibiting growth, 37 °C, 16 h; range 2–100 μM
Protocol: as §11, §12, §13
as §11, with “(W3110 / ATCC27325, F-, λ-,” for “(W3110/ATCC27325, F^–, λ^–,”, “Oxford / ATCC9144)” for “Oxford/ATCC9144)”, “°C.” for “°C. A single colony was selected and placed in 5 mL of Iso-sensitest broth (Oxoid, ThermoScientific) and incubated with shaking for 16–18 h at 37 °C to provide liquid cultures for testing.”
as §14, §15, §16

[4] = system: Staphylococcus epidermidis (laboratory strain from clinical isolate); assay type: cell-based; details: lowest concentration completely inhibiting growth, 37 °C, 16 h; range 2–100 μM
Protocol: as §11, §12, §13
as §11, with “(W3110 / ATCC27325, F-, λ-,” for “(W3110/ATCC27325, F^–, λ^–,”, “Oxford / ATCC9144)” for “Oxford/ATCC9144)”, “°C.” for “°C. A single colony was selected and placed in 5 mL of Iso-sensitest broth (Oxoid, ThermoScientific) and incubated with shaking for 16–18 h at 37 °C to provide liquid cultures for testing.”
as §14, §15, §16

[5] = system: Staphylococcus aureus (3R7089 strain Oxford/ATCC9144); assay type: cell-based; details: lowest concentration completely inhibiting growth, 37 °C, 16 h; range 2–100 μM
Protocol: as §11, §12, §13
as §11, with “(W3110 / ATCC27325, F-, λ-,” for “(W3110/ATCC27325, F^–, λ^–,”, “Oxford / ATCC9144)” for “Oxford/ATCC9144)”, “°C.” for “°C. A single colony was selected and placed in 5 mL of Iso-sensitest broth (Oxoid, ThermoScientific) and incubated with shaking for 16–18 h at 37 °C to provide liquid cultures for testing.”
as §14, §15, §16

S. epidermidis = system: S. epidermidis; set-up: method as in PMID 10681325, PMID 3299384; details: cited from earlier work
E. coli [6] = system: E. coli; set-up: method as in PMID 10681325, PMID 3299384; details: cited from earlier work
S. aureus = system: S. aureus; set-up: method as in PMID 10681325, PMID 3299384; details: cited from earlier work
E. coli [7] = system: E. coli; set-up: method as in PMID 10681325; details: cited from earlier work

Molecule: N=C(N)NCCCCNCC(=O)N(CC(=O)N(CC(=O)N(CCCCNC(=N)N)CC(=O)N(CC(=O)N(CC(=O)N(CCCCNC(=N)N)CC(=O)N(CC(=O)N(CC(=O)N(CCCCNC(=N)N)CC(=O)N(CC(=O)N(CC(N)=O)Cc1ccccc1)Cc1ccccc1)Cc1ccccc1)Cc1ccccc1)Cc1ccccc1)Cc1ccccc1)Cc1ccccc1)Cc1ccccc1 [Peptoid 33, (NhArgNpheNphe)4] (H-[NhArg][Nphe][Nphe][NhArg][Nphe][Nphe][NhArg][Nphe][Nphe][NhArg][Nphe][Nphe]-NH2)
- CC50 at 24 h [1]: 100 µM
- ED50 HaCaT (HaCaT cells): >100 µM
- MIC P. aeruginosa [2]: 25 µM
- MIC E. coli [3]: 6 µM
- MIC S. epidermidis [4]: 2 µM

Molecule: C[C@@H](c1ccccc1)N(CC(N)=O)C(=O)CN(C(=O)CN(CCCCNC(=N)N)C(=O)CN(C(=O)CN(C(=O)CN(CCCCNC(=N)N)C(=O)CN(C(=O)CN(C(=O)CN(CCCCN)C(=O)CN(C(=O)CN(C(=O)CNCCCCN)[C@@H](C)c1ccccc1)[C@@H](C)c1ccccc1)[C@@H](C)c1ccccc1)[C@@H](C)c1ccccc1)[C@@H](C)c1ccccc1)[C@@H](C)c1ccccc1)[C@@H](C)c1ccccc1 [Peptoid 41, (NLysNspeNspe)2(NhArgNspeNspe)2] (H-[Nlys][Nspe][Nspe][Nlys][Nspe][Nspe][NhArg][Nspe][Nspe][NhArg][Nspe][Nspe]-NH2)
- CC50 at 24 h [1]: 100 µM
- ED50 HaCaT (HaCaT cells): >100 µM
- MIC P. aeruginosa [2]: 34 µM
- MIC E. coli [3]: 17 µM
- MIC S. aureus [5]: 17 µM

Molecule: Magainin 2
- MIC S. epidermidis (S. epidermidis): 10 μg mL^–1
- MIC S. epidermidis (S. epidermidis; value in brackets, in μM): 4 µM
- MIC E. coli (E. coli [6]): 5 μg mL^–1
- MIC E. coli (E. coli [6]; value in brackets, in μM): 2 µM
- MIC S. aureus (S. aureus): 50 μg mL^–1
- MIC S. aureus (S. aureus; value in brackets, in μM): 20 µM

Molecule: cecropin A (KWKLFKKIEKVGQNIRDGIIKAGPAVAVVGQATQIAK; ends and bridges not checked; UniProt P01507 27-63, looked up) [natural antimicrobial peptide (AMP) described in the literature]
- concentration shown to kill 90% of E. coli (E. coli [7]): 2 µM
